Read-outs that look alike come from different tables or passages of the source.
How the values were obtained:
human PRMT1 = target: T1, human PRMT1 (Homo sapiens, UniProt Q99873); assay: PRMT1 Biochemical Assay; conditions: peptide substrate, 3H-SAM Flashplate assay; read-out: PRMT1 IC50
T1 construct: GST-tagged PRMT1; made in house; host or cells: High Five insect cells (baculovirus, pFastBac1)
From the text: (§1) S-adenosylmethionine (SAM), S-adenosylhomocysteine (SAH), bicine, Tween20, dimethylsulfoxide (DMSO), bovine skin gelatin (BSG), and Tris(2-carboxyethyl)phosphine hydrochloride solution (TCEP) were purchased from Sigma-Aldrich at the highest level of purity possible. ^3H-SAM was purchase from American Radiolabeled Chemicals with a specific activity of 80 Ci/mmol. 384-well streptavidin Flashplates were purchased from PerkinElmer.
Recombinant baculovirus were generated according to Bac-to-Bac kit instructions (Life Technologies). […] Infections were carried out at 27° C. for 48 hours, harvested by centrifugation, and stored at −80° C. for purification.
GST-tagged PRMT1 was eluted with 50 mM Tris, 2 mM glutathione, pH 7.8, dialysed in buffer A and concentrated to 1 mg/mL.
General Procedure for PRMT1 Enzyme Assays on Peptide Substrates.
(§2) The assays were all performed in a buffer consisting of 20 mM Bicine (pH=7.6), 1 mM TCEP, 0.005% BSG, and 0.002% Tween 20, prepared on the day of use. […] DMSO (1 ul) was added to Columns 11, 12, 23, 24, rows A-H for the maximum signal control and 1 ul of SAH, a known product and inhibitor of PRMT1, was added to columns 11, 12, 23, 24, rows I-P for the minimum signal control. A cocktail (40 ul) containing the PRMT1 enzyme was added by Multidrop Combi (Thermo-Fisher). The compounds were allowed to incubate with PRMT1 for 30 min at room temperature, then a cocktail (10 ul) containing SAM and peptide was added to initiate the reaction (final volume=51 ul). […] The assays were stopped by the addition of non-radiolabeled SAM (10 ul) to a final concentration of 300 uM, which dilutes the ^3H-SAM to a level where its incorporation into the peptide substrate is no longer detectable. 50 ul of the reaction in the 384-well polypropylene plate was then transferred to a 384-well Flashplate and the biotinylated peptides were allowed to bind to the streptavidin surface for at least 1 hour before being washed once with 0.1% Tween20 in a Biotek ELx405 plate washer. The plates were then read in a PerkinElmer TopCount plate reader to measure the quantity of ^3H-labeled peptide bound to the Flashplate surface, measured as disintegrations per minute (dpm) or alternatively, referred to as counts per minute (cpm).
(§3) Where dpm=disintegrations per minute, cmpd=signal in assay well, and min and max are the respective minimum and maximum signal controls.
(§4) Where top and bottom are the normally allowed to float, but may be fixed at 100 or 0 respectively in a 3-parameter fit. The Hill Coefficient normally allowed to float but may also be fixed at 1 in a 3-parameter fit. Y is the % inhibition and X is the compound concentration.

human PRMT6 = target: T2, human PRMT6 (Homo sapiens, UniProt Q96LA8); assay: PRMT6 Biochemical Assay
T2 construct: Flag-PRMT6-His; made in house; host or cells: HEK 293F cells (BacMam baculovirus, pFastBacMam)
From the text: as §1, with “(BSG), sodium butyrate” for “(BSG),”
Peptide representative of human histone H4 residues 36-50 was synthesized with an N-terminal linker-affinity tag motif and a C-terminal amide cap by 21st Century Biochemicals.
The amplified gene was subcloned into pFastBacMam (Viva Biotech).
Recombinant baculovirus were generated according to Bac-to-Bac kit instructions (Life Technologies). […] Infections were carried out at 37° C. for 48 hours, harvested by centrifugation, and stored at −80° C. for purification.
Column was washed with 20 mM imidazole in the same buffer and Flag-PRMT6-His was eluted with 150 mM imidazole. Pooled fractions were dialysed against buffer Ni-A and further purified by anti-flag M2 affinity chromatography. Flag-PRMT6-His was eluted with 200 ug/ml FLAG peptide in the same buffer. Pooled fractions were dialysed in 20 mM Tris, 150 mM NaCl, 10% glycerol and 5 mM β-mercaptoethanol, pH 7.8.
General Procedure for PRMT6 Enzyme Assays on Peptide Substrates.
as §2, with “PRMT6,” for “PRMT1,”, “PRMT6” for “PRMT1”, “400” for “300”
as §3, §4

[1] = tested on: mono-methyl arginine in RKO cells; assay: RKO Methylation Assay, In Cell Western (ICW); type: cell-based; conditions: 72 hours
From the text: RKO adherent cells were purchased from ATCC (American Type Culture Collection), Manassas, Va., USA. DMEM/Glutamax medium, penicillin-streptomycin, heat inactivated fetal bovine serum, 0.05% trypsin and D-PBS were purchased from Life Technologies, Grand Island, N.Y., USA. Odyssey blocking buffer, 800CW goat anti-rabbit IgG (H+L) antibody, and Licor Odyssey infrared scanner were purchased from Licor Biosciences, Lincoln, Nebr., USA. Mono-methyl arginine antibody was purchased from Cell Signaling Technology, Danvers, Mass., USA. Methanol was purchased from VWR, Franklin, Mass., USA. 10% Tween 20 was purchased from KPL, Inc., Gaithersburg, Md., USA. DRAQ5 was purchased from Biostatus Limited, Leicestershire, UK.
RKO adherent cells were maintained in growth medium (DMEM/Glutamax medium supplemented with 10% v/v heat inactivated fetal bovine serum and 100 units/mL penicillin-streptomycin) and cultured at 37° C. under 5% CO2.
Cell treatment, In Cell Western (ICW) for detection of mono-methyl arginine and DNA content.
Compound (100 nL) from a 96-well source plate was added directly to 384 well cell plate. Plates were incubated at 37° C., 5% CO2 for 72 hours. After three days of incubation, plates were brought to room temperature outside of the incubator for ten minutes and blotted on paper towels to remove cell media. 50 μL of ice cold 100% methanol was added directly to each well and incubated for 30 min at room temperature. After 30 min, plates were transferred to a Biotek EL406 plate washer and washed 2 times with 100 μL per well of wash buffer (1×PBS). Next 60 μL per well of Odyssey blocking buffer (Odyssey Buffer with 0.1% Tween 20 (v/v)) were added to each plate and incubated 1 hour at room temperature. Blocking buffer was removed and 20 μL per well of primary antibody was added (mono-methyl arginine diluted 1:200 in Odyssey buffer with 0.1% Tween 20 (v/v)) and plates were incubated overnight (16 hours) at 4° C. Plates were washed 5 times with 100 μL per well of wash buffer. […] The plates were washed 5 times with 100 μL per well wash buffer then 2 times with 100 μL per well of water. Plates were allowed to dry at room temperature then imaged on the Licor Odyssey machine which measures integrated intensity at 700 nm and 800 nm wavelengths. Both 700 and 800 channels were scanned.
First, the ratio for each well was determined by:
Each plate included fourteen control wells of DMSO only treatment (minimum activation) as well as fourteen control wells for maximum activation treated with 20 μM of a reference compound. The average of the ratio values for each control type was calculated and used to determine the percent activation for each test well in the plate. Reference compound was serially diluted three-fold in DMSO for a total of nine test concentrations, beginning at 20 μM. Percent activation was determined and EC30 curves were generated using triplicate wells per concentration of compound.

human PRMT8 = human PRMT8 (Homo sapiens, UniProt Q9NR22); assay: PRMT8 Biochemical Assay; conditions: PRMT8 IC50 (uM), peptide substrate, 3H-SAM Flashplate assay
[2] = peptide substrate, 3H-SAM Flashplate assay, read-out: PRMT6 IC50

T1 sequence (Q99873 with tags, fused parts or gaps): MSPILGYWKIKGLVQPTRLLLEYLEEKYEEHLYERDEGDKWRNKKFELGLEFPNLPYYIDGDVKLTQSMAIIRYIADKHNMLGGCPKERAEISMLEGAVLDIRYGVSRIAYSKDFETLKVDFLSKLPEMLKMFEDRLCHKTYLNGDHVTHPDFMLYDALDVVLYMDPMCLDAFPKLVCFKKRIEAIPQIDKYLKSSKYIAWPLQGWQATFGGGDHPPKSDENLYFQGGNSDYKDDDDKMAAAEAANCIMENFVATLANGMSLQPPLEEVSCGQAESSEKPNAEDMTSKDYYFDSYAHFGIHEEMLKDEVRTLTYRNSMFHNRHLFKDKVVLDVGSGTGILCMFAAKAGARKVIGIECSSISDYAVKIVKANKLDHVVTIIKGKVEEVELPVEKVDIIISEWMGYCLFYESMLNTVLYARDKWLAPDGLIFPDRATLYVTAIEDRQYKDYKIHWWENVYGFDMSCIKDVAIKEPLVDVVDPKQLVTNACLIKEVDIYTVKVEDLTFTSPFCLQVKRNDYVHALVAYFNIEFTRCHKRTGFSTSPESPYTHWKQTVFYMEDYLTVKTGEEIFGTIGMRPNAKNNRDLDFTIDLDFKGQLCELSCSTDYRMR
human PRMT8, sequence (Q9NR22 whole entry): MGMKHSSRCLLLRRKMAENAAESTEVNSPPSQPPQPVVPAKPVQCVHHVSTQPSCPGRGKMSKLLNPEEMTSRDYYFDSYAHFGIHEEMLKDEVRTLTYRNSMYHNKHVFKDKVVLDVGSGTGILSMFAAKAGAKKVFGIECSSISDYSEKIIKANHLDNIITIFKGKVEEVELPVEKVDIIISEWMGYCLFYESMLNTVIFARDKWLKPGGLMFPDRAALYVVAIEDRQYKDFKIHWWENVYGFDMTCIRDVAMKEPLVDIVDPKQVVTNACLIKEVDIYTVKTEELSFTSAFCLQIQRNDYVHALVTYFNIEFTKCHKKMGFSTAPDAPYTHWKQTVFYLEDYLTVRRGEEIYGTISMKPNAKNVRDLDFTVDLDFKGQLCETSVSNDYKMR
T2 sequence (Q96LA8 with tags, fused parts or gaps): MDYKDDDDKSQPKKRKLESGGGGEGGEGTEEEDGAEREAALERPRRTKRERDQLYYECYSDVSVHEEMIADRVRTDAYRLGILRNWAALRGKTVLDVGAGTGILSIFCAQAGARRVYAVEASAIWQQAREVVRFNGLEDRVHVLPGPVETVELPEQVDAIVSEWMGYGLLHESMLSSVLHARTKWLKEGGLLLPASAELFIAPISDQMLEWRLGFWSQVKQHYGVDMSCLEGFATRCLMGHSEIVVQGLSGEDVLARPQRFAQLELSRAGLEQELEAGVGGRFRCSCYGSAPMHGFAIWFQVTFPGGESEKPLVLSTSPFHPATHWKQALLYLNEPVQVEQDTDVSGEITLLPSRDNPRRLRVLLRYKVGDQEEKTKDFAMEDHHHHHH

| Compound | IC50 (human PRMT1) | IC50 (human PRMT6; [2]) | IC50 (human PRMT8) | ICW EC30 [1] | IC50 (human PRMT6; PRMT6 IC50 (uM)) |
| --- | --- | --- | --- | --- | --- |
| CNCCN(C)Cc1c[nH]nc1[C@H]1CC[C@@H](OCCOc2ccc(OCCOC)cc2)CC1 [Compound 34] | 0.00737 µM | 0.0267 µM | 0.0135 µM | 0.08013 µM | – |
| CNCCN(C)Cc1c[nH]nc1-c1ccc(CC(C)C)cc1 [Compound 37] | 0.00804 µM | – | 0.0136 µM | 0.082 µM | 0.0169 µM |
| C=C(C)COc1c(Cl)cc(-c2n[nH]cc2CN(C)CCNC)cc1C(F)(F)F [Compound 39] | 0.00831 µM | 0.0295 µM | 0.0122 µM | 0.439 µM | – |
| CNCCN(C)Cc1c[nH]nc1-c1cc(C)c(OCC2CC2)c(C(F)(F)F)c1 [Compound 43] | 0.00897 µM | – | 0.015 µM | 0.475 µM | 0.0326 µM |
| CNCCN(C)Cc1ccnn1-c1ccc(COC)cc1 [Compound 44] | 0.00925 µM | 0.0565 µM | 0.0235 µM | 0.13 µM | – |
| CC(C)Cc1ccc(-c2n[nH]cc2CN(C)CCN)cc1C(F)(F)F [Compound 48] | 0.0104 µM | 0.0427 µM | 0.0237 µM | 3.673 µM | – |
| CNCCN(C)Cc1c[nH]nc1-c1cc(F)c(OC2CCOCC2)c(C(F)(F)F)c1 [Compound 53] | 0.011 µM | 0.0189 µM | 0.0328 µM | 0.479 µM | – |
| CNCCN(C)Cc1ccnn1C1CCC2(CCOC2)CC1 (stereo not drawn) [Compound 54] | 0.0112 µM | 0.0329 µM | 0.0535 µM | 0.68 µM | – |
| CNCCN(C)Cc1c[nH]nc1-c1cc(Cl)c(OCC(C)C)c(C(F)(F)F)c1 [Compound 56] | 0.0115 µM | 0.0435 µM | 0.0168 µM | 0.765 µM | – |
| CNCCN(C)Cc1c[nH]nc1-c1ccc(N2CC3CCCC3C2)nc1 (stereo not drawn) [Compound 58] | 0.0119 µM | 0.00835 µM | 0.0254 µM | 0.4165 µM | – |
| CNCCN(C)Cc1ccnn1C1CCC2(CCOCC2)CC1 [Compound 59] | 0.0122 µM | 0.0347 µM | 0.042 µM | 0.2464 µM | – |

More lines, main results first:

| IC50 (human PRMT1) | IC50 (human PRMT6; [2]) | IC50 (human PRMT8) | Compound | ICW EC30 [1] | IC50 (human PRMT6; PRMT6 IC50 (uM)) |
| --- | --- | --- | --- | --- | --- |
| 0.00737 µM | 0.00562 µM | 0.0233 µM | CNCCN(C)Cc1c[nH]nc1-c1ccc(OCCOc2ccc(OC(C)C)cc2)cc1 [Compound 33] | 0.232 µM | – |
| 0.00759 µM | 0.005 µM | 0.0219 µM | CNCCN(C)Cc1c[nH]nc1-c1ccc(OCCOc2ccc(OCCC(O)CO)cc2)cc1 (stereo not drawn) [Compound 35] | 0.4227 µM | – |
| 0.00764 µM | 0.00635 µM | 0.0244 µM | CNCCN(C)Cc1c[nH]nc1-c1ccc(OCCOc2ccc(N3CCOCC3)cc2)cc1 [Compound 36] | 0.1271 µM | – |
| 0.00834 µM | 0.00739 µM | 0.0247 µM | CNCCN(C)Cc1c[nH]nc1-c1ccc(OCCOc2ccc(OCC(C)C)cc2)cc1 [Compound 40] | 0.5051 µM | – |
| 0.0088 µM | 0.00896 µM | 0.0334 µM | CNCCN(C)Cc1c[nH]nc1-c1ccc(N(C)CCOc2ccc(OC)cc2)cc1 [Compound 41] | 0.3514 µM | – |
| 0.0089 µM | 0.00498 µM | 0.0514 µM | CNCCN(C)Cc1c[nH]nc1-c1ccc(OCCOc2ccc(C)cc2)cc1 [Compound 42] | 0.185 µM | – |
| 0.00926 µM | 0.0331 µM | 0.0367 µM | CCN(CCOc1cccc(OC)c1)c1ccc(-c2n[nH]cc2CN(C)CCNC)cc1 [Compound 45] | 1.14 µM | – |
| 0.00949 µM | 0.00456 µM | 0.026 µM | CNCCN(C)Cc1c[nH]nc1-c1ccc(OCCOc2ccc(OCCN3CCOCC3)cc2)cc1 [Compound 46] | 0.2516 µM | – |
| 0.0105 µM | 0.00705 µM | 0.0337 µM | CNCCN(C)Cc1c[nH]nc1-c1ccc(OCCOc2cccc(N3CCOCC3)c2)cc1 [Compound 49] | 0.7468 µM | – |
| 0.0118 µM | 0.00902 µM | 0.042 µM | CNCCN(C)Cc1c[nH]nc1-c1ccc(N(C)CCOc2cccc(OC)c2)cc1 [Compound 57] | 0.7577 µM | – |

Reference: US20190077795A1, “ARGININE […] INHIBITORS AND USES THEREOF” (Epizyme, Inc., priority 2014, published 2019)
